From article PMC3792051, “Polyenylpyrrole Derivatives Inhibit NLRP3 Inflammasome Activation and Inflammatory Mediator Expression by Reducing Reactive Oxygen Species Production and Mitogen-Activated Protein Kinase Activation” (PLoS ONE, 2013)

Key:
RAW 264.7 cells = assay: AlamarBlue assay for cell viability (cytotoxicity); conditions: read-out: IC50 (cytotoxicity), RAW 264.7 macrophages, 24 h treatment, 6.25-100 µM tested
[1] = system: LPS-activated RAW 264.7 macrophages; assay: Intracellular ROS production (DCF fluorescence), LPS-induced; type: cell-based, murine; conditions: RAW 264.7, 30 min pretreatment; compound 1h 20 µM, NAC 10 mM
Description: Intracellular ROS production was measured by detecting the fluorescence intensity of the 2’, 7’-dichlorofluorescein, the oxidation product of 2’, 7’-dichlorofluorescein diacetate (Molecular Probes, Eugene, OR). In one study, RAW 264.7 macrophages (5 × 10^5/ml; 0.1 ml) were incubated with vehicle, compound 1h (20 µM), or NAC (10 mM) for 30 min, then 2’, 7’-dichlorofluorescein diacetate (2 µM) was added for 30 min, then LPS was added for the indicated time. In another, J774A.1 macrophages (5 × 10^5/ml; 0.1 ml) were incubated with LPS (1 µg/ml) for 6 h, then vehicle, compound 1h (20 µM), or DPI (25 µM) was added for 30 min. 2’, 7’-dichlorofluorescein diacetate (2 µM) was then added for 30 min before incubation with ATP (5 mM) for the indicated time; while, in another, the order of addition of compound1h/DPI and LPS was reversed. The fluorescence intensity of 2’, 7’-dichlorofluorescein was detected at an excitation wavelength of 485 nm and an emission wavelength of 530 nm on a microplate absorbance reader (Bio-Rad Laboratories, Inc).
To test whether compound 1h exerted its anti-inflammatory effect on LPS-activated cells by downregulation of ROS production, intracellular ROS production in LPS-activated RAW 264.7 macrophages was measured.
Figure 5 Effect of compound 1h on ROS production and MAPK phosphorylation in LPS-activated macrophages. […]

[2] = system: LPS-activated RAW 264.7 macrophages; assay: IL-6 and TNF-α secretion by ELISA; type: cell-based, murine
Description: The effects of the test samples on IL-1β, TNF-α, and IL-6 production were measured by ELISA according to the manufacturer’s instructions. In brief, 50 µl of biotinylated antibody reagent and 50 µl of supernatant were added to a stripwell plate precoated with anti-mouse IL-1β, TNF-α, or IL-6 antibodies, which was then incubated at room temperature for 2 h. After washing the plate three times with washing buffer, 100 µl of diluted streptavidin-HRP concentrate was added to each well and the plate incubated at room temperature for 30 min. The washing process was repeated, then 100 µl of a premixed tetramethylbenzidine substrate solution was added to each well and the plate incubated at room temperature in the dark for 30 min. After addition of 100 µl of stop solution to each well, the absorbance at 450 nm of each well was measured on a microplate reader.
To investigate the inhibitory effect of compounds 1h, 1i, and 1n on the LPS-induced inflammatory response, NO levels in the supernatants of RAW 264.7 macrophages incubated with DMSO (vehicle) or compound 1h, 1i, or 1n for 30 min before, and during, incubation for 24 h with LPS (1 µg/ml) were measured by the Griess reaction. […] We next investigated their effect on the expression of iNOS, the NO producing enzyme, using Western blots.
Figure 2 Effect of polyenylpyrrole derivatives on the expression of inflammatory mediators in LPS-stimulated RAW 264.7 macrophages. In (A) and (C), the cells (5 × 10^5/ml; 1 ml) were incubated for 30 min with 2.5-40 µM compound 1h, 1i, or 1n or DMSO (vehicle), then LPS (1 µg/ml) was added and incubation continued for 24 h, then NO (A) or IL-6 or TNF-α (C) in the culture medium was assayed by the Griess reaction or ELISA, respectively. In (B), cells (5 × 10^5/ml; 1 ml) were pretreated for 30 min with 2.5-40 µM compound 1h or DMSO, then LPS (1 µg/ml) was added and incubation continued for 24 h, then expression of iNOS and COX-2 was measured by Western blotting. The fold increase is the intensity of the band of interest divided by that of the actin band normalized to the corresponding value for the 0 LPS/0 inhibitor control.

[3] = RAW 264.7, 2.5-40 µM, LPS 1 µg/ml 24 h

O=c1cc(O)cc(/C=C/C=C/C=C/C=C/c2[nH]ccc2Cl)o1 [compound 1h]
IC50 (RAW 264.7 cells): > 100 µM | LPS-stimulated ROS production [1]: reduced LPS-stimulated ROS production | IL-6 production by LPS-activated cells [2, 3]: significantly decreased IL-6 production by LPS-activated cells in a dose-dependent manner | TNF-α secretion by LPS-activated cells [2, 3]: only slightly and non-significantly reduced | Background levels of IL-6 and TNF-α in non-stimulated macrophages ([2]; RAW 264.7, no LPS (data not shown)): none of the three compounds altered background levels of IL-6 and TNF-α
